# According to US11053251B2, “GPR35 modulators” (Prometheus Biosciences, Inc., priority 2019, dated 2021):
# pEC50: −log10 of the molar value.
# How the values were obtained:
# Human GPR35 [1] = biological target: Human GPR35 (Homo sapiens, UniProt Q9HC97); assay: Beta-Arrestin Assay (Tango U2OS cells, LiveBLAzer-FRET B/G); type: cell-based; conditions: Human GPR35 expressing Tango U2OS cells, 5 hours treatment
# Protocol: Human GPR35 expressing Tango U2OS cells were plated in 384-well format in clear bottom plates at a cell density of 10,000 cells/well and allowed to grow overnight. The next day, cells were treated with serially diluted test compounds for 5 hours. LiveBLAzer-FRET B/G (CCF4-AM) detection reagents were then added and cells were allowed to incubate for 2 hours before reading plates on a BioTek Cytation 5 plate reader. Zaprinast was used as a positive control for dose-response curves. In order to determine EC50 values, data were fit to a four-parameter dose-response curve.
# Human GPR35 [2] = biological target: Human GPR35 (Homo sapiens, UniProt Q9HC97, S294R); assay: Alternative Beta-Arrestin Assay (JumpIn 294R Tango U2OS cells, LiveBLAzer-FRET B/G); type: cell-based; conditions: for pEC50: Human GPR35 expressing JumpIn 294R Tango U2OS cells, 5 hours treatment; for % inhibition at 50 μM: Table 2
# How it was run: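 U2OS Tango cells expressing human GPR35 S294R, plated overnight, exposed to serially diluted compounds for 5 hours. β-lactamase reporter read with LiveBLAzer-FRET B/G (CCF4-AM) after 2 h; EC50 from four-parameter fit, zaprinast as positive control.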
# Human GPR35 (Homo sapiens, UniProt Q9HC97, S294R), sequence (Q9HC97 whole entry S294R): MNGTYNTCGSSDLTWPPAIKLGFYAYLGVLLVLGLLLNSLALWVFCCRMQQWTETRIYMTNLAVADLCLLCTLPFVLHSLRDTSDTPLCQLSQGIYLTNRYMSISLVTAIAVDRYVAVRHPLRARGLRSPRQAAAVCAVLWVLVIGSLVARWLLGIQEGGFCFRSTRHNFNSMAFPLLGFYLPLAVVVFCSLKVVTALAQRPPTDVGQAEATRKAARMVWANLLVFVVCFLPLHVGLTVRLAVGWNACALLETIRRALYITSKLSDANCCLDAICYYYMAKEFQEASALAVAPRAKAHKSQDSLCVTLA
# Human GPR35 (Homo sapiens, UniProt Q9HC97), sequence (Q9HC97 whole entry): as the sequence (Q9HC97 whole entry S294R) above, with R294S counted along it
SMILES,pEC50 (Human GPR35 [1]),pEC50 (Human GPR35 [2]),% inhibition at 50 μM (Human GPR35 [2])
"CCOc1cc(C(=O)Nc2ccccn2)ccc1-c1nc2[nH]nnc2c(=O)[nH]1 [Compound 140, 3-ethoxy-4-(7-oxo-6,7-dihydro-3H-[1,2,3]triazolo[4,5-d]pyrimidin-5-yl)-N-(pyridin-2-yl)benzamide]",≥ 5.00,≥ 5.00,
"CCOc1cc(C(=O)Nc2cccnc2)ccc1-c1nc2[nH]nnc2c(=O)[nH]1 [Compound 141, 3-ethoxy-4-(7-oxo-6,7-dihydro-3H-[1,2,3]triazolo[4,5-d]pyrimidin-5-yl)-N-(pyridin-3-yl)benzamide]",≥ 5.00,≥ 5.00,
"CCOc1cc(-c2nnn[nH]2)ccc1-c1nc2[nH]nnc2c(=O)[nH]1 [Compound 143, 5-(2-ethoxy-4-(1H-tetrazol-5-yl)phenyl)-3,6-dihydro-7H-[1,2,3]triazolo[4,5-d]pyrimidin-7-one]",≥ 5.00,≥ 5.00,
"CCOc1cc(CO)ccc1-c1nc2[nH]nnc2c(=O)[nH]1 [Compound 145, 5-(2-ethoxy-4-(hydroxymethyl)phenyl)-3,6-dihydro-7H-[1,2,3]triazolo[4,5-d]pyrimidin-7-one]",≥ 5.00,≥ 5.00,
"CCOc1cc(CC(=O)O)ccc1-c1nc2[nH]nnc2c(=O)[nH]1 [Compound 146, 2-(3-ethoxy-4-(7-oxo-6,7-dihydro-3H-[1,2,3]triazolo[4,5-d]pyrimidin-5-yl)phenyl)acetic acid]",≥ 5.00,≥ 5.00,
"CCOc1cc(-c2noc(=O)[nH]2)ccc1-c1nc2[nH]nnc2c(=O)[nH]1 [Compound 150, 3-(3-ethoxy-4-(7-oxo-6,7-dihydro-3H-[1,2,3]triazolo[4,5-d]pyrimidin-5-yl)phenyl)-1,2,4-oxadiazol-5(4H)-one]",≥ 5.00,≥ 5.00,
"CCOc1cc(B(O)O)ccc1-c1nc2[nH]nnc2c(=O)[nH]1 [Compound 151, (3-ethoxy-4-(7-oxo-6,7-dihydro-3H-[1,2,3]triazolo[4,5-d]pyrimidin-5-yl)phenyl)boronic acid]",≥ 5.00,≥ 5.00,
"CCOc1cc(C(=O)NS(=O)(=O)N(C)C)ccc1-c1nc2[nH]nnc2c(=O)[nH]1 [Compound 152, N-(N,N-dimethylsulfamoyl)-3-ethoxy-4-(7-oxo-6,7-dihydro-3H-[1,2,3]triazolo[4,5-d]pyrimidin-5-yl)benzamide]",≥ 5.00,≥ 5.00,
"CCOc1cc(-c2cccc(-c3nnn[nH]3)c2)ccc1-c1nc2[nH]nnc2c(=O)[nH]1 [Compound 153, 5-(3-ethoxy-3′-(1H-tetrazol-5-yl)-[1,1′-biphenyl]-4-yl)-3,6-dihydro-7H-[1,2,3]triazolo[4,5-d]pyrimidin-7-one]",≥ 5.00,≥ 5.00,
"CCOc1cc(-c2cccc(C(=O)O)c2C)ccc1-c1nc2[nH]nnc2c(=O)[nH]1 [Compound 154, 3′-ethoxy-2-methyl-4′-(7-oxo-6,7-dihydro-3H-[1,2,3]triazolo[4,5-d]pyrimidin-5-yl)-[1,1′-biphenyl]-3-carboxylic acid]",≥ 5.00,≥ 5.00,
"CCOc1cc(-c2cccc(C(N)=O)c2)ccc1-c1nc2[nH]nnc2c(=O)[nH]1 [Compound 156, 3′-ethoxy-4′-(7-oxo-6,7-dihydro-3H-[1,2,3]triazolo[4,5-d]pyrimidin-5-yl)-[1,1′-biphenyl]-3-carboxamide]",≥ 5.00,≥ 5.00,
"CCOc1cc(C(=O)N2CCC[C@H]2C(=O)O)ccc1-c1nc2[nH]nnc2c(=O)[nH]1 [Compound 158, (3-ethoxy-4-(7-oxo-6,7-dihydro-3H-[1,2,3]triazolo[4,5-d]pyrimidin-5-yl)benzoyl)-L-proline]",< 5.00,,48% inhibition at
"CCOc1cc(C(=O)N2CC[C@H](C(=O)O)C2)ccc1-c1nc2[nH]nnc2c(=O)[nH]1 [Compound 160, (S)-1-(3-ethoxy-4-(7-oxo-6,7-dihydro-3H-[1,2,3]triazolo[4,5-d]pyrimidin-5-yl)benzoyl)pyrrolidine-3-carboxylic acid]",≥ 5.00,≥ 5.00,
"CCOc1cc(N2CCC[C@H]2C(=O)O)ccc1-c1nc2[nH]nnc2c(=O)[nH]1 [Compound 162, (3-ethoxy-4-(7-oxo-6,7-dihydro-3H-[1,2,3]triazolo[4,5-d]pyrimidin-5-yl)phenyl)-L-proline]",≥ 5.00,4.30 to 5.00,
"CCOc1cc(NCCCC(=O)O)ccc1-c1nc2[nH]nnc2c(=O)[nH]1 [Compound 164, 4-((3-ethoxy-4-(7-oxo-6,7-dihydro-3H-[1,2,3]triazolo[4,5-d]pyrimidin-5-yl)phenyl)amino)butanoic acid]",≥ 5.00,≥ 5.00,
"CCOc1cc(N2CC[C@H](C(=O)O)C2)ccc1-c1nc2[nH]nnc2c(=O)[nH]1 [Compound 166, (S)-1-(3-ethoxy-4-(7-oxo-6,7-dihydro-3H-[1,2,3]triazolo[4,5-d]pyrimidin-5-yl)phenyl)pyrrolidine-3-carboxylic acid]",≥ 5.00,≥ 5.00,
"CCOc1cc(N2CC[C@@H](C(=O)O)C2)ccc1-c1nc2[nH]nnc2c(=O)[nH]1 [Compound 167, (R)-1-(3-ethoxy-4-(7-oxo-6,7-dihydro-3H-[1,2,3]triazolo[4,5-d]pyrimidin-5-yl)phenyl)pyrrolidine-3-carboxylic acid]",≥ 5.00,≥ 5.00,

# Next, values leading:
pEC50 (Human GPR35 [1]),pEC50 (Human GPR35 [2]),% inhibition at 50 μM (Human GPR35 [2]),SMILES
≥ 5.00,4.30 to 5.00,,"CCOc1cc(NC(C)=O)ccc1-c1nc2[nH]nnc2c(=O)[nH]1 [Compound 138, N-(3-ethoxy-4-(7-oxo-6,7-dihydro-3H-[1,2,3]triazolo[4,5-d]pyrimidin-5-yl)phenyl)acetamide]"
< 5.00,,35% inhibition at,"CCOc1cc(C(=O)N(C)c2ccccc2)ccc1-c1nc2[nH]nnc2c(=O)[nH]1 [Compound 139, 3-ethoxy-N-methyl-4-(7-oxo-6,7-dihydro-3H-[1,2,3]triazolo[4,5-d]pyrimidin-5-yl)-N-phenylbenzamide]"
≥ 5.00,≥ 5.00,,"CCOc1cc(C#N)ccc1-c1nc2[nH]nnc2c(=O)[nH]1 [Compound 142, 3-ethoxy-4-(7-oxo-6,7-dihydro-3H-[1,2,3]triazolo[4,5-d]pyrimidin-5-yl)benzonitrile]"
≥ 5.00,≥ 5.00,,"O=C(O)c1ccc(-c2nc3[nH]nnc3c(=O)[nH]2)cc1 [Compound 144, 4-(7-oxo-6,7-dihydro-3H-[1,2,3]triazolo[4,5-d]pyrimidin-5-yl)benzoic acid]"
< 5.00,< 4.30,,"O=c1[nH]c(-c2ccc(CO)cc2)nc2[nH]nnc12 [Compound 148, 5-(4-(hydroxymethyl)phenyl)-3,6-dihydro-7H-[1,2,3]triazolo[4,5-d]pyrimidin-7-one]"
≥ 5.00,≥ 5.00,,"O=C(O)Cc1ccc(-c2nc3[nH]nnc3c(=O)[nH]2)cc1 [Compound 149, 2-(4-(7-oxo-6,7-dihydro-3H-[1,2,3]triazolo[4,5-d]pyrimidin-5-yl)phenyl)acetic acid]"
≥ 5.00,≥ 5.00,,"CCOc1cc(-c2ccc(C)c(C(=O)O)c2)ccc1-c1nc2[nH]nnc2c(=O)[nH]1 [Compound 155, 3′-ethoxy-4-methyl-4′-(7-oxo-6,7-dihydro-3H-[1,2,3]triazolo[4,5-d]pyrimidin-5-yl)-[1,1′-biphenyl]-3-carboxylic acid]"
≥ 5.00,≥ 5.00,,"CCOc1cc(-c2cc(C(=O)O)cc(C(=O)O)c2)ccc1-c1nc2[nH]nnc2c(=O)[nH]1 [Compound 157, 3′-ethoxy-4′-(7-oxo-6,7-dihydro-3H-[1,2,3]triazolo[4,5-d]pyrimidin-5-yl)-[1,1′-biphenyl]-3,5-dicarboxylic acid]"
< 5.00,4.30 to 5.00,,"CCOc1cc(C(=O)N2CCC[C@@H]2C(=O)O)ccc1-c1nc2[nH]nnc2c(=O)[nH]1 [Compound 159, (3-ethoxy-4-(7-oxo-6,7-dihydro-3H-[1,2,3]triazolo[4,5-d]pyrimidin-5-yl)benzoyl)-D-proline]"
≥ 5.00,≥ 5.00,,"CCOc1cc(C(=O)N2CC[C@@H](C(=O)O)C2)ccc1-c1nc2[nH]nnc2c(=O)[nH]1 [Compound 161, (R)-1-(3-ethoxy-4-(7-oxo-6,7-dihydro-3H-[1,2,3]triazolo[4,5-d]pyrimidin-5-yl)benzoyl)pyrrolidine-3-carboxylic acid]"
≥ 5.00,≥ 5.00,,"CCOc1cc(N2CCC[C@@H]2C(=O)O)ccc1-c1nc2[nH]nnc2c(=O)[nH]1 [Compound 163, (3-ethoxy-4-(7-oxo-6,7-dihydro-3H-[1,2,3]triazolo[4,5-d]pyrimidin-5-yl)phenyl)-D-proline]"
≥ 5.00,,66% inhibition at,"CCOc1cc(N2CCCC2=O)ccc1-c1nc2[nH]nnc2c(=O)[nH]1 [Compound 165, 5-(2-ethoxy-4-(2-oxopyrrolidin-1-yl)phenyl)-3,6-dihydro-7H-[1,2,3]triazolo[4,5-d]pyrimidin-7-one]"
≥ 5.00,≥ 5.00,,"CCOc1cc(NCCC(=O)O)ccc1-c1nc2[nH]nnc2c(=O)[nH]1 [Compound 168, 3-((3-ethoxy-4-(7-oxo-6,7-dihydro-3H-[1,2,3]triazolo[4,5-d]pyrimidin-5-yl)phenyl)amino)propanoic acid]"
≥ 5.00,≥ 5.00,,"CCOc1cc(C(=O)N[C@H](CCC(=O)O)C(=O)O)ccc1-c1nc2[nH]nnc2c(=O)[nH]1 [Compound 169, (3-ethoxy-4-(7-oxo-6,7-dihydro-3H-[1,2,3]triazolo[4,5-d]pyrimidin-5-yl)benzoyl)-D-glutamic acid]"
